Laboratory results taken from PubChem BioAssay (NCI).
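Each compound was tested at five concentrations against cells in 96-well plates for 48 hours. GI50 marks 50% less growth. TGI is the concentration that stops growth completely.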

Assays:
Assay in all cases: NCI-60 cell line screen, 48 h; in the data active = GI50 below about 0.43 µM; inactive = the rest
A498 renal = test system: A498 renal
A549 NSCLC = test system: A549 NSCLC
M14 melanoma = test system: M14 melanoma
DU-145 prostate = test system: DU-145 prostate
HCT-116 colon = test system: HCT-116 colon
SK-MEL-2 melanoma = test system: SK-MEL-2 melanoma
SW-620 colon = test system: SW-620 colon
RPMI-8226 leukemia = test system: RPMI-8226 leukemia
NCI-H226 lung = test system: NCI-H226 lung
UO-31 renal = test system: UO-31 renal
OVCAR-5 ovarian = test system: OVCAR-5 ovarian
UACC-257 melanoma = test system: UACC-257 melanoma
CCRF-CEM leukemia = test system: CCRF-CEM leukemia
T-47D breast = test system: T-47D breast
IGROV1 ovarian = test system: IGROV1 ovarian
MDA-MB-435 = test system: MDA-MB-435
HCC-2998 colon = test system: HCC-2998 colon
HT29 colon = test system: HT29 colon
SK-MEL-28 melanoma = test system: SK-MEL-28 melanoma
HCT-15 colon = test system: HCT-15 colon
LOX IMVI melanoma = test system: LOX IMVI melanoma
KM12 colon = test system: KM12 colon
HS 578T breast = test system: HS 578T breast
OVCAR-4 ovarian = test system: OVCAR-4 ovarian
NCI-H460 lung = test system: NCI-H460 lung
HOP-62 NSCLC = test system: HOP-62 NSCLC
MCF7 breast = test system: MCF7 breast
PC-3 prostate = test system: PC-3 prostate
EKVX NSCLC = test system: EKVX NSCLC
K-562 leukemia = test system: K-562 leukemia
OVCAR-3 ovarian = test system: OVCAR-3 ovarian
ACHN renal = test system: ACHN renal
786-0 renal = test system: 786-0 renal
UACC-62 melanoma = test system: UACC-62 melanoma
SF-295 CNS = test system: SF-295 CNS
SK-MEL-5 melanoma = test system: SK-MEL-5 melanoma
SNB-19 CNS = test system: SNB-19 CNS
SK-OV-3 ovarian = test system: SK-OV-3 ovarian
SNB-75 CNS = test system: SNB-75 CNS
SN12C renal = test system: SN12C renal
CAKI-1 renal = test system: CAKI-1 renal
HOP-92 NSCLC = test system: HOP-92 NSCLC
MDA-MB-231 breast = test system: MDA-MB-231 breast
U251 CNS = test system: U251 CNS
RXF 393 renal = test system: RXF 393 renal
HL-60(TB) leukemia = test system: HL-60(TB) leukemia
NCI/ADR-RES ovarian = test system: NCI/ADR-RES ovarian
NCI-H23 lung = test system: NCI-H23 lung
TK-10 renal = test system: TK-10 renal
BT-549 breast = test system: BT-549 breast
SF-539 CNS = test system: SF-539 CNS
OVCAR-8 ovarian = test system: OVCAR-8 ovarian
NCI-H522 lung = test system: NCI-H522 lung
COLO 205 colon = test system: COLO 205 colon
SF-268 CNS = test system: SF-268 CNS

CC1=C(C(=O)Nc2ccc(F)c(Cl)c2)C(c2ccccc2O)NC(=O)N1 (stereo not given)
67.9 µM: TGI (TK-10 renal)
inactive: GI50 (A498 renal) > 100 µM | GI50 (A549 NSCLC) > 100 µM | GI50 (M14 melanoma) 69.9 µM | GI50 (DU-145 prostate) > 100 µM | GI50 (HCT-116 colon) 51.7 µM | GI50 (SK-MEL-2 melanoma) > 100 µM | GI50 (SW-620 colon) > 100 µM | GI50 (RPMI-8226 leukemia) 46.1 µM | GI50 (NCI-H226 lung) > 100 µM | GI50 (UO-31 renal) 80.7 µM | GI50 (OVCAR-5 ovarian) > 100 µM | GI50 (UACC-257 melanoma) > 100 µM | GI50 (CCRF-CEM leukemia) 59.9 µM | GI50 (T-47D breast) 42.4 µM | GI50 (IGROV1 ovarian) 50.2 µM | GI50 (MDA-MB-435) > 100 µM | GI50 (HCC-2998 colon) > 100 µM | GI50 (HT29 colon) 41.4 µM | GI50 (SK-MEL-28 melanoma) 79.7 µM | GI50 (HCT-15 colon) > 100 µM | GI50 (LOX IMVI melanoma) 80.5 µM | GI50 (KM12 colon) 70.9 µM | GI50 (HS 578T breast) 76.3 µM | GI50 (OVCAR-4 ovarian) 12.2 µM | GI50 (NCI-H460 lung) 96.6 µM | GI50 (HOP-62 NSCLC) > 100 µM | GI50 (MCF7 breast) 70.5 µM | GI50 (PC-3 prostate) 58.8 µM | GI50 (EKVX NSCLC) > 100 µM | GI50 (K-562 leukemia) 58.1 µM | GI50 (OVCAR-3 ovarian) 65.4 µM | GI50 (ACHN renal) > 100 µM | GI50 (786-0 renal) > 100 µM | GI50 (UACC-62 melanoma) 49 µM | GI50 (SF-295 CNS) 94.5 µM | GI50 (SK-MEL-5 melanoma) 41.2 µM | GI50 (SNB-19 CNS) > 100 µM | GI50 (SK-OV-3 ovarian) > 100 µM | GI50 (SNB-75 CNS) 40 µM | GI50 (SN12C renal) > 100 µM | GI50 (CAKI-1 renal) > 100 µM | GI50 (HOP-92 NSCLC) 81.6 µM | GI50 (MDA-MB-231 breast) 27.4 µM | GI50 (U251 CNS) > 100 µM | GI50 (RXF 393 renal) > 100 µM | GI50 (HL-60(TB) leukemia) 59.6 µM | GI50 (NCI/ADR-RES ovarian) > 100 µM | GI50 (NCI-H23 lung) > 100 µM | GI50 (TK-10 renal) 32.4 µM | GI50 (BT-549 breast) 71.5 µM | GI50 (SF-539 CNS) > 100 µM | GI50 (OVCAR-8 ovarian) > 100 µM | GI50 (NCI-H522 lung) 61.9 µM | GI50 (COLO 205 colon) > 100 µM | GI50 (SF-268 CNS) > 100 µM
68.6 µM: TGI (OVCAR-4 ovarian)
> 100 µM: TGI (A498 renal) | TGI (A549 NSCLC) | TGI (M14 melanoma) | TGI (DU-145 prostate) | TGI (HCT-116 colon) | TGI (SK-MEL-2 melanoma) | TGI (SW-620 colon) | TGI (RPMI-8226 leukemia) | TGI (NCI-H226 lung) | TGI (UO-31 renal) | TGI (OVCAR-5 ovarian) | TGI (UACC-257 melanoma) | TGI (CCRF-CEM leukemia) | TGI (T-47D breast) | TGI (IGROV1 ovarian) | TGI (MDA-MB-435) | TGI (HCC-2998 colon) | TGI (HT29 colon) | TGI (SK-MEL-28 melanoma) | TGI (HCT-15 colon) | TGI (LOX IMVI melanoma) | TGI (KM12 colon) | TGI (HS 578T breast) | TGI (NCI-H460 lung) | TGI (HOP-62 NSCLC) | TGI (MCF7 breast) | TGI (PC-3 prostate) | TGI (EKVX NSCLC) | TGI (K-562 leukemia) | TGI (OVCAR-3 ovarian) | TGI (ACHN renal) | TGI (786-0 renal) | TGI (UACC-62 melanoma) | TGI (SF-295 CNS) | TGI (SK-MEL-5 melanoma) | TGI (SNB-19 CNS) | TGI (SK-OV-3 ovarian) | TGI (SNB-75 CNS) | TGI (SN12C renal) | TGI (CAKI-1 renal) | TGI (HOP-92 NSCLC) | TGI (MDA-MB-231 breast) | TGI (U251 CNS) | TGI (RXF 393 renal) | TGI (HL-60(TB) leukemia) | TGI (NCI/ADR-RES ovarian) | TGI (NCI-H23 lung) | TGI (BT-549 breast) | TGI (SF-539 CNS) | TGI (OVCAR-8 ovarian) | TGI (NCI-H522 lung) | TGI (COLO 205 colon) | TGI (SF-268 CNS)
